What all share (type): physicochemical
A short description of series [1]: Two-photon absorption cross-sectional area, Z scan method, Examples A (800 nm). Conditions: tetrahydrofuran solution, femtosecond titanium sapphire laser. The procedure:
Each of the above-given compounds Nos. 1, 2, 4, 5, 6, 7, 10, 11, 15, 16, 17, 20, 24, 25, 27 and 28 of the present invention was dissolved in tetrahydrofuran, and the resultant solution was measured for its two-photon absorption cross-sectional area according to the below-described evaluation method therefor.
The following compound (29) was dissolved in tetrahydrofuran, and the resultant solution was measured for its two-photon absorption cross-sectional area according to the below-described evaluation method therefor.
The following compound (30) was dissolved in tetrahydrofuran, and the resultant solution was measured for its two-photon absorption cross-sectional area according to the below-described evaluation method therefor.
[drawing 66] [Method for Measuring Two-Photon Absorption Cross-Sectional Area]
(§1) FIG. 8 schematically illustrates a system of the method.
(§2) Measuring light source: femtosecond titanium sapphire laser
(§3) Repetition frequency: 80 MHz
(§4) Measuring method: Z scan method
Wavelength of light source: 800 nm
(§5) Inner diameter of cuvette: 10 mm
(§6) Light power for measurement: about 500 mW
(§7) Collection diameter: 40 μm to 50 μm
(§8) A quartz cell filled with each sample solution was placed in a light path through which a focused laser beam was passed. Then, the cell was moved along the light path for Z-scan measurement.
The sample solution was measured for its transmittance, and the thus-obtained value and the following theoretical equation (1) were used to determine a nonlinear absorption coefficient of the sample. T=[ln(1+I0L0β)]/I0L0β (1) where T denotes a transmittance (%), I0 denotes an excited light density [GW/cm^2], L0 denotes a sample cell length [cm], and β denotes a nonlinear absorption coefficient [cm/GW].
The thus-determined nonlinear absorption coefficient and the following equation (2) were used to calculate a two-photon absorption cross-sectional area σ. Note that the unit of σ is GM (1 GM=1×10^−50 cm^4·s·photon^−1). σ=1,000×hvβ/[…] (2)
(§9) where h denotes the Planck's constant [J·s], v denotes a frequency of an incident laser beam [s^−1], NA denotes the Avogadoro's number, and C denotes a concentration of a solution [mol/L].

Series [2] in a line: Two-photon absorption cross-sectional area, Z scan method, Examples B. Conditions: tetrahydrofuran solution, femtosecond laser, 780 nm to 960 nm (710 nm to 990 nm). The procedure:
Each of Compounds (1), (2), (57), (58), (59), (60), (3), (4), (61), (62), (25), (26), (63), (64), (65), (66), (45), (67), (68), (69), (70), (71), (72), (5), (9), (13), (19), (27), (31), (32), (34), (36), (39), (44), (53) and (55) was dissolved in tetrahydrofuran, and the resultant tetrahydrofuran solution was measured for its two-photon absorption cross-sectional area according to the below-described evaluation method therefor.
This measurement was performed under the following conditions:
Sample concentration: 10^−2 mol to 10^−5 mol (this range covering optimal concentrations of the samples (at which measurements are easily performed));
Light path length of cell: 10 mm (corresponding to the inner diameter of cuvette);
Light: variable femtosecond laser having a wavelength of 710 nm to 990 nm; and
Light power: 10 mW to 800 mW.
The following compound (73) was dissolved in tetrahydrofuran, and the resultant solution was measured for its two-photon absorption cross-sectional area according to the below-described evaluation method therefor.
The following compound (74) was dissolved in tetrahydrofuran, and the resultant solution was measured for its two-photon absorption cross-sectional area according to the below-described evaluation method therefor.
[drawing 68] [Method for Measuring Two-Photon Absorption Cross-Sectional Area]
as §1, §2, §3, §4, §5, §6, §7, §8
The sample solution was measured for its transmittance, and the thus-obtained value and the following theoretical equation (I) were used to determine a nonlinear absorption coefficient of the sample. T=[ln(1+I0L0β)]/I0L0β (I)
where T denotes a transmittance (%), I0 denotes an excited light density [GW/cm^2], L0 denotes a sample cell length [cm], and β denotes a nonlinear absorption coefficient [cm/GW].
The thus-determined nonlinear absorption coefficient and the following equation (ii) were used to calculate a two-photon absorption cross-sectional area σ. Note that the unit of σ is GM (1 GM=1×10^−50 cm^4·s·photon^−1). σ=1,000×hvβ/[…] (ii)
as §9

Series [3] is described as follows: Two-photon absorption cross-sectional area, Z scan method, Examples C. Particulars: tetrahydrofuran solution, wavelength 800 nm. The procedure: Compound 1-7 (porphyrin derivative) of the present invention was dissolved in tetrahydrofuran, and the resultant tetrahydrofuran solution was measured for its two-photon absorption cross-sectional area according to the below-described evaluation method therefor.
The following Comparative Compound 1 was dissolved in tetrahydrofuran, and the resultant tetrahydrofuran solution was measured for its two-photon absorption cross-sectional area according to the below-described evaluation method therefor.
The following Comparative Compound 2, having a typical porphyrin structure, was dissolved in tetrahydrofuran, and the resultant tetrahydrofuran solution was measured for its two-photon absorption cross-sectional area in a similar manner.
The following Comparative Compound 3, having a conventional, typical diazaporphyrin structure, was dissolved in tetrahydrofuran, and the resultant tetrahydrofuran solution was measured for its two-photon absorption cross-sectional area.
[drawing 71] [Method for Measuring Two-Photon Absorption Cross-Sectional Area] […]
A quartz cell filled with each sample solution was placed in a light path through which a focused laser beam was passed. […] The sample solution was measured for its transmittance, and the thus-obtained value and the following theoretical equation (I) were used to determine a nonlinear absorption coefficient of the sample. […]

As to `CCC1=C(CC)C2=C(Br)c3c(CC)c(CC)c4[n]3[Zn][n]3c(c(CC)c(CC)c3=C(c3ccc5c(c3)C(C)(C)c3cc(C6=C7N=C(C(CC)=C7CC)C(c7ccc([N+](=O)[O-])cc7)=c7c(CC)c(CC)c8[n]7[Zn][n]7c(c(CC)c(CC)c76)C(c6ccc([N+](=O)[O-])cc6)=C6N=C(C(CC)=C6CC)C=8Br)ccc3-5)C3=NC(=C4c4ccc([N+](=O)[O-])cc4)C(CC)=C3CC)=C(c3ccc([N+](=O)[O-])cc3)C1=N2` [compound 28], the “Two-photon absorption cross-sectional area” value in series [1] is on record as 590 GM.

In the case of `Cc1ccc(N(c2ccc(C)cc2)c2ccc(/C=C/c3ccc(C4=c5ccc6[n]5[Ni][n]5c(ccc5C(c5cccc(C7OCC(C)(C)CO7)c5)=C5C=CC4=N5)C(Cl)=C4C=CC(=N4)C=6c4cccc(C5OCC(C)(C)CO5)c4)cc3)cc2)cc1` [compound 6], the “Two-photon absorption cross-sectional area” value in series [1] was 730 GM. The same measure, in the same setting: next, `CCC1=C(CC)c2nc1c(Br)c1[nH]c(c(CC)c1CC)c(-c1ccc([N+](=O)[O-])cc1)c1nc(c(-c3ccc4c(c3)C(C)(C)c3cc(-c5c6nc(c(-c7ccc([N+](=O)[O-])cc7)c7[nH]c(c(Br)c8nc(c(-c9ccc([N+](=O)[O-])cc9)c9[nH]c5c(CC)c9CC)C(CC)=C8CC)c(CC)c7CC)C(CC)=C6CC)ccc3-4)c3[nH]c(c(CC)c3CC)c2-c2ccc([N+](=O)[O-])cc2)C(CC)=C1CC` [compound 27]: 870 GM; `CC1=C(C)c2nc1c(-c1ccc(C#N)cc1)c1[nH]c(c(C)c1C)c(-c1ccc(/C=C/c3ccc(N(c4ccccc4)c4ccc(C)cc4)cc3)cc1)c1nc(c(-c3ccc(C#N)cc3)c3[nH]c(c(C)c3C)c2-c2ccc(/C=C/c3ccc(N(c4ccccc4)c4ccc(C)cc4)cc3)cc2)C(C)=C1C` [compound 5]: 1,480 GM.

Regarding `COc1ccc(-c2cc(C3=C(c4cc(-c5ccc(OC)cc5)sc4OC)C(F)(F)C(F)(F)C3(F)F)c(OC)s2)cc1` [compound 30, reference compound], the “Two-photon absorption cross-sectional area” value in series [1] was found to be 15 GM. For `CC1=C(C)c2nc1c(-c1ccc(C#N)cc1)c1[nH]c(c(C)c1C)c(-c1ccc(/C=C/c3ccc(N(c4ccccc4)c4ccc(C)cc4)cc3)cc1)c1nc(c(-c3ccc(C#N)cc3)c3[nH]c(c(C)c3C)c2-c2ccc(/C=C/c3ccc(N(c4ccccc4)c4ccc(C)cc4)cc3)cc2)C(C)=C1C` [(5)], the “Two-photon absorption cross-sectional area” value in series [2] was 980 GM. As to `CCC1=C(C)C2=C(c3cc(OC)c(OC)c(OC)c3)c3c(C)c(CC)c4[n]3[Cu][n]3c(c(C)c(CC)c3=C(c3ccc(/C=C/c5ccc(N(c6ccc(C)cc6)c6ccc(C)cc6)cc5)cc3)C1=N2)=C(c1cc(OC)c(OC)c(OC)c1)C1=NC(=C4c2ccc(/C=C/c3ccc(N(c4ccc(C)cc4)c4ccc(C)cc4)cc3)cc2)C(CC)=C1C` [(62)], the “Two-photon absorption cross-sectional area” value in series [2] was found to be 840 GM. The same measure, in the same setting: next, `CCCCCCC1(CCCCCC)c2cc(C3=C4C=CC(=N4)C(c4cc(OC)c(OC)c(OC)c4)=c4ccc5[n]4[Zn][n]4c(ccc43)C(c3cc(OC)c(OC)c(OC)c3)=C3C=CC(=N3)C=5/C=C/c3ccc(N(c4ccccc4)c4ccccc4)cc3)ccc2-c2ccc(C3=c4ccc5[n]4[Zn][n]4c(ccc4C(c4cc(OC)c(OC)c(OC)c4)=C4C=CC3=N4)C=C3C=CC(=N3)C=5c3cc(OC)c(OC)c(OC)c3)cc21` [(45)]: 1,200 GM. With `CCCCCCc1ccc(N(c2ccc(C3=C4N=C(C(C)=C4CC)C(c4c(C)cc(C)cc4C)=c4c(C)c(CC)c5[n]4[Co][n]4c(c(C)c(CC)c43)C(c3c(C)cc(C)cc3C)=C3N=C(C=5)C(CC)=C3C)cc2)c2ccc(C3=c4c(CC)c(C)c5[n]4[Co][n]4c(c(CC)c(C)c4C(c4c(C)cc(C)cc4C)=C4N=C3C(CC)=C4C)C=C3N=C(C(C)=C3CC)C=5c3c(C)cc(C)cc3C)cc2)cc1` [(65)], the “Two-photon absorption cross-sectional area” value in series [2] was 810 GM. With `CCCCCCc1ccc(N(c2ccc(-c3c4nc(c(-c5c(C)cc(C)cc5C)c5[nH]c(cc6nc(c(-c7c(C)cc(C)cc7C)c7[nH]c3c(CC)c7C)C(C)=C6CC)c(CC)c5C)C(C)=C4CC)cc2)c2ccc(-c3c4nc(c(-c5c(C)cc(C)cc5C)c5[nH]c(cc6nc(c(-c7c(C)cc(C)cc7C)c7[nH]c3c(CC)c7C)C(C)=C6CC)c(CC)c5C)C(C)=C4CC)cc2)cc1` [compound 25], the “Two-photon absorption cross-sectional area” value in series [1] is 1,020 GM. Turning to `COc1ccc(-c2cc(C3=C(c4cc(-c5ccc(OC)cc5)sc4OC)C(F)(F)C(F)(F)C3(F)F)c(OC)s2)cc1` [(74), reference compound], the “Two-photon absorption cross-sectional area” value in series [2] is recorded as 15 GM. Same read-out and setting: next, `CCCCCCc1ccc(N(c2ccc(C3=C4N=C(C(C)=C4CC)C(c4c(C)cc(C)cc4C)=c4c(C)c(CC)c5[n]4[Pd][n]4c(c(C)c(CC)c43)C(c3c(C)cc(C)cc3C)=C3N=C(C=5)C(CC)=C3C)cc2)c2ccc(C3=c4c(CC)c(C)c5[n]4[Pd][n]4c(c(CC)c(C)c4C(c4c(C)cc(C)cc4C)=C4N=C3C(CC)=C4C)C=C3N=C(C(C)=C3CC)C=5c3c(C)cc(C)cc3C)cc2)cc1` [(64)]: 890 GM. `COc1ccc(-c2cc(C3=C(c4cc(-c5ccc(OC)cc5)sc4OC)C(F)(F)C(F)(F)C3(F)F)c(OC)s2)cc1` [Comp. Ex. C-1]: the “Two-photon absorption cross-sectional area” value in series [3] stood at 15 GM.
